Reference: PubChem BioAssay AID280 (DTP/NCI, 2004)
“And” between values parts separate entries of the source, which are not always exact repeats. Identical values can stand only once. Toxic doses and inconclusive results are not listed.

System: nude mice, LOX melanoma ip, survival T/C
Assay: NCI In Vivo Anticancer Drug Screen. Data for tumor model Human Amelanotic Melanoma (LOX) (intraperitoneal) in NU/NU BALB/C (nude) mice
Conditions: endpoint: median survival time, schedule: Q04DX003 (ip), higher = longer survival
Method: The antitumor activity of compounds was measured in mice bearing transplantable tumors. Survival or tumor size were measured and the results are expressed as the measurement made in the treated group (T) divided by the measurement made in the vehicle treated control group (C). The tumor model used in this assay is Human Amelanotic Melanoma (LOX) (intraperitoneal) in NU/NU BALB/C (nude) mice

[1] = dose: 75.0 mg/kg/injection, vehicle: Klucel (hydroxypropylcellulose) (HPC)
[2] = dose: 150.0 mg/kg/injection, vehicle: Klucel (hydroxypropylcellulose) (HPC)
[3] = dose: 300.0 mg/kg/injection, vehicle: Klucel (hydroxypropylcellulose) (HPC)
[4] = dose: 18.75 mg/kg/injection, vehicle: Klucel (hydroxypropylcellulose) (HPC)
[5] = dose: 37.5 mg/kg/injection, vehicle: Klucel (hydroxypropylcellulose) (HPC)
[6] = dose: 50.0 mg/kg/injection, vehicle: Klucel (hydroxypropylcellulose) (HPC)
[7] = dose: 100.0 mg/kg/injection, vehicle: Klucel (hydroxypropylcellulose) (HPC)
[8] = dose: 200.0 mg/kg/injection, vehicle: Klucel (hydroxypropylcellulose) (HPC)
[9] = dose: 5.0 mg/kg/injection, vehicle: water

`CN=C(NC#N)NCCSCc1nc[nH]c1C` was tested, and the T/C [1] was 98 % of control, the T/C [2] was 98 % of control and the T/C [3] was 101 % of control.
`COC1CC2C=C(C)/C=C/C=C/C(=O)NC(c3ccccc3)C/C=C/CCC(O)CC(=O)C2=C1O` (configuration not stated) was tested, and the T/C [4] was 112 % of control and the T/C [5] was 187 % of control.
In the case of `COC(=O)C1C2CCCN2OC1(C)CO` (configuration not stated), the T/C (dose: 30.0 mg/kg/injection, vehicle: saline) is reported as 103 % of control, the T/C (dose: 60.0 mg/kg/injection, vehicle: saline) is reported as 97 % of control and the T/C (dose: 62.5 mg/kg/injection, vehicle: saline with Tween-80) is reported as 111 % of control. The T/C (dose: 120.0 mg/kg/injection, vehicle: saline) was 99 % of control, the T/C (dose: 240.0 mg/kg/injection, vehicle: saline) was 89 % of control and the T/C (dose: 250.0 mg/kg/injection, vehicle: saline with Tween-80) was 101 % of control. For the same molecule, the T/C (dose: 500.0 mg/kg/injection, vehicle: saline with Tween-80) was 100 % of control and the T/C (dose: 1000.0 mg/kg/injection, vehicle: saline with Tween-80) was 98 % of control.
With `COC(=O)c1ccc(N=NN(C)COC(C)=O)cc1` the T/C (dose: 30.0 mg/kg/injection, vehicle: Klucel (hydroxypropylcellulose) (HPC)) was 118 % of control, the T/C (dose: 51.8 mg/kg/injection, vehicle: Klucel (hydroxypropylcellulose) (HPC)) was 175 % of control and the T/C (dose: 86.4 mg/kg/injection, vehicle: Klucel (hydroxypropylcellulose) (HPC)) was 193 % of control. For the same molecule, the T/C (dose: 120.0 mg/kg/injection, vehicle: Klucel (hydroxypropylcellulose) (HPC)) was 193 % of control, the T/C (dose: 144.0 mg/kg/injection, vehicle: Klucel (hydroxypropylcellulose) (HPC)) was 262 % of control and the T/C (dose: 240.0 mg/kg/injection, vehicle: Klucel (hydroxypropylcellulose) (HPC)) was 220 % of control and 237 % of control.
In the case of `CCOC(=O)c1c[nH]c2ccc3c(nc(C)n3C)c2c1=O`, the T/C [6] is reported as 100 % of control, the T/C [7] is reported as 104 % of control and the T/C [8] is reported as 93 % of control. For the same molecule, the T/C (dose: 400.0 mg/kg/injection, vehicle: Klucel (hydroxypropylcellulose) (HPC)) was 100 % of control and the T/C (dose: 800.0 mg/kg/injection, vehicle: Klucel (hydroxypropylcellulose) (HPC)) was 94 % of control.
With `COc1cc2c(c(OC)c1OC)-c1ccc(SC)c(=O)cc1[C@@H](NC(C)=O)CC2` the T/C (dose: 0.25 mg/kg/injection, vehicle: Klucel (hydroxypropylcellulose) (HPC)) was 163 % of control, the T/C (dose: 0.5 mg/kg/injection, vehicle: Klucel (hydroxypropylcellulose) (HPC)) was 172 % of control and 196 % of control and the T/C (dose: 0.82 mg/kg/injection, vehicle: Klucel (hydroxypropylcellulose) (HPC)) was 173 % of control. The T/C (dose: 1.38 mg/kg/injection, vehicle: Klucel (hydroxypropylcellulose) (HPC)) was 193 % of control.
With `C/C=C/C=C/c1cc2cc3c(c(O)c2c(=O)[nH]1)C1(CC3)C(O)=c2c(=O)c3c(=O)cc(OC)c(=O)c=3c(=O)c2=C1O` (configuration not stated) the T/C (dose: 1.0 mg/kg/injection, vehicle: water) was 155 % of control, the T/C (dose: 1.8 mg/kg/injection, vehicle: water) was 155 % of control and the T/C (dose: 3.0 mg/kg/injection, vehicle: water) was 169 % of control and 177 % of control. The T/C [9] was 177 % of control and the T/C (dose: 8.3 mg/kg/injection, vehicle: water) was 189 % of control.
For `NCCCC(N)(C(=O)O)C(F)F` (configuration not stated), the T/C (dose: 75.0 mg/kg/injection, vehicle: distilled water + alcohol) was 112 % of control, the T/C (dose: 150.0 mg/kg/injection, vehicle: distilled water + alcohol) was 111 % of control and the T/C (dose: 300.0 mg/kg/injection, vehicle: distilled water + alcohol) was 101 % of control. The T/C (dose: 600.0 mg/kg/injection, vehicle: distilled water + alcohol) was 97 % of control and the T/C (dose: 1200.0 mg/kg/injection, vehicle: distilled water + alcohol) was 106 % of control.
With `O=C([O][Bi]([c]1ccccc1)[c]1ccccc1)c1ccccc1` the T/C (dose: 12.5 mg/kg/injection, vehicle: Klucel (hydroxypropylcellulose) (HPC)) was 98 % of control, the T/C [6] was 211 % of control and the T/C [8] was 103 % of control.
In the case of `CC(C)(C)NC(C1=CC(C)(C)c2ccccc2C1=O)c1ccccc1` (configuration not stated), the T/C (dose: 25.0 mg/kg/injection, vehicle: Klucel (hydroxypropylcellulose) (HPC)) is reported as 107 % of control, the T/C [6] is reported as 113 % of control and the T/C [7] is reported as 110 % of control. The T/C [8] was 118 % of control.
For `CN(C)C(=O)Nc1ccc(Cl)cc1`, the T/C (dose: 75.0 mg/kg/injection, vehicle: suspension in saline) was 118 % of control, the T/C (dose: 150.0 mg/kg/injection, vehicle: suspension in saline) was 102 % of control and the T/C (dose: 300.0 mg/kg/injection, vehicle: suspension in saline) was 102 % of control. The T/C (dose: 600.0 mg/kg/injection, vehicle: suspension in saline) was 102 % of control.
In the case of `COC1=C(OC)C(=O)C(N(C)C)=C(CO)C1=O`, the T/C (dose: 25.0 mg/kg/injection, vehicle: saline) is reported as 116 % of control, the T/C (dose: 50.0 mg/kg/injection, vehicle: saline) is reported as 103 % of control and the T/C (dose: 100.0 mg/kg/injection, vehicle: saline) is reported as 104 % of control. The T/C (dose: 200.0 mg/kg/injection, vehicle: saline) was 117 % of control.
`Cc1ccc(NN=O)nc1` was tested, and the T/C (dose: 2.5 mg/kg/injection, vehicle: water) was 105 % of control, the T/C [9] was 114 % of control and the T/C (dose: 10.0 mg/kg/injection, vehicle: water) was 115 % of control.
`Cc1ccc(/C=C/C(=O)/C=C/c2ccc(C)o2)o1` was tested, and the T/C (dose: 50.0 mg/kg/injection, vehicle: DMSO) was 113 % of control, the T/C (dose: 100.0 mg/kg/injection, vehicle: DMSO) was 102 % of control and the T/C (dose: 200.0 mg/kg/injection, vehicle: DMSO) was 98 % of control. The T/C (dose: 400.0 mg/kg/injection, vehicle: DMSO) was 100 % of control and the T/C (dose: 800.0 mg/kg/injection, vehicle: DMSO) was 106 % of control.
For `CC(=O)c1cccc(NC2C(N)C(NC(=O)N(C)C)(C(C)O)C(C)(O)C2(O)COC(=O)c2c(C)cccc2O)c1` (configuration not stated), the T/C (dose: 12.5 mg/kg/injection, vehicle: suspension in saline) was 173 % of control.
In the case of `Nc1n[nH]c2ccccc12`, the T/C (dose: 75.0 mg/kg/injection, vehicle: other) is reported as 107 % of control and the T/C (dose: 150.0 mg/kg/injection, vehicle: other) is reported as 98 % of control.
`CC1/C=C/C=C/CC/C=C/C=C/C=C/C=C/C(OC2OC(C)C(O)C(N)C2O)CC2OC(CC(O)C(O)CCC(O)CC(O)CC(O)CC(=O)OC(C)C(C)C1O)CC(O)C2C(=O)O` (configuration not stated) was tested, and the T/C (dose: 25.0 mg/kg/injection, vehicle: saline with Tween-80) was 101 % of control, the T/C (dose: 50.0 mg/kg/injection, vehicle: saline with Tween-80) was 101 % of control and the T/C (dose: 100.0 mg/kg/injection, vehicle: saline with Tween-80) was 111 % of control.
In the case of `CN(C)C(=O)SC1=C(c2c(Cl)cccc2Cl)C(=O)c2ccccc21`, the T/C [1] is reported as 103 % of control and 110 % of control, the T/C [2] is reported as 112 % of control and 97 % of control and the T/C [3] is reported as 109 % of control and 92 % of control. The T/C (dose: 600.0 mg/kg/injection, vehicle: Klucel (hydroxypropylcellulose) (HPC)) was 110 % of control and 123 % of control and the T/C (dose: 1200.0 mg/kg/injection, vehicle: Klucel (hydroxypropylcellulose) (HPC)) was 105 % of control.
`COc1ccccc1/C=C/C(=O)c1ccccc(=O)c1O` was tested, and the T/C (dose: 9.38 mg/kg/injection, vehicle: Klucel (hydroxypropylcellulose) (HPC)) was 98 % of control, the T/C [4] was 89 % of control and the T/C [5] was 98 % of control. The T/C [1] was 110 % of control and the T/C [2] was 103 % of control.
